Data as given in ChEMBL document CHEMBL5096191 (J Med Chem, 2021).

How the values were obtained:
Type in all cases: functional, cell-based
Cannabinoid receptor 2 [1] = target: T1, Cannabinoid receptor 2 (Homo sapiens, UniProt P34972); experiment: Partial agonist activity at wild type CB2 receptor (unknown origin) expressed in HEK293T assessed as increase in picometer shifts of reflected light wavelengths by DMR assay relative to control; conditions: filed as partial agonist
[2] = test system: Cannabinoid receptor 2 (Homo sapiens), P34972 [V113M]; experiment: Partial agonist activity at CBR2 V1133.32M mutant (unknown origin) expressed in HEK293T assessed as increase in picometer shifts of reflected light wavelengths by DMR assay relative to control
Sequence of Cannabinoid receptor 2 (Homo sapiens), P34972 [V113M] (P34972 whole entry V113M): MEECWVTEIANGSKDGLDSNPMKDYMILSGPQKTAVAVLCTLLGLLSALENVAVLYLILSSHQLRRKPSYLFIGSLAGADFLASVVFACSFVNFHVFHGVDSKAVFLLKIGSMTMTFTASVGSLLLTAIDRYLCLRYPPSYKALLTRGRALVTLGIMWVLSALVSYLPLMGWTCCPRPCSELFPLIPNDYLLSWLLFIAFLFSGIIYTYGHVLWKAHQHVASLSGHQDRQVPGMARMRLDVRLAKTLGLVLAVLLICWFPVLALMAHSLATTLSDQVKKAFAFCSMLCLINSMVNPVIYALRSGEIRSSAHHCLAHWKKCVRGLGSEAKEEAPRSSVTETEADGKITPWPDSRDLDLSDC

Cannabinoid receptor 2 [3] = target: T1, Cannabinoid receptor 2; experiment: Positive allosteric modulation of JWH-133-induced agonist activity at wild type CB2 receptor (unknown origin) stably expressed in HEK293T cells assessed as inhibition of forskolin-stimulated cAMP levels preincubated for 15 mins followed by forskolin addition incubated for 15 mins by HTRF assay relative to control; conditions: filed as positive allosteric modulator, time 30.0 min
Cannabinoid receptor 2 [4] = target: T1, Cannabinoid receptor 2; experiment: Partial agonist activity at wild type CB2 receptor (unknown origin) stably expressed in HEK293T assessed as decrease in forskolin induced cAMP level preincubated for 15 mins followed by forskolin addition incubated for 15 mins by HTRF assay relative to control; conditions: filed as partial agonist, time 30.0 min
[5] = test system: Cannabinoid receptor 2 (Homo sapiens), P34972 [V113M]; experiment: Partial agonist activity at CBR2 V1133.32M mutant (unknown origin) stably expressed in HEK293T assessed as decrease in forskolin induced cAMP level preincubated for 15 mins followed by forskolin addition incubated for 15 mins by HTRF assay relative to control; conditions: filed as partial agonist, time 30.0 min
[6] = test system: Cannabinoid receptor 2 (Homo sapiens), P34972 [V113M]; experiment: Partial agonist activity at CBR2 V1133.32M mutant (unknown origin) expressed in HEK293T assessed as increase in ERK1/2 phosphorylation incubated for 7 mins by AlphaScreenSureFire method relative to control; conditions: filed as partial agonist
Cannabinoid receptor 2 [7] = target: T1, Cannabinoid receptor 2; experiment: Partial agonist activity at wild type CB2 receptor (unknown origin) expressed in HEK293T assessed as increase in ERK1/2 phosphorylation incubated for 7 mins by AlphaScreenSureFire method relative to control; conditions: filed as partial agonist
Cannabinoid receptor 2 [8] = target: T1, Cannabinoid receptor 2; experiment: Positive allosteric modulation of JWH-133-induced agonist activity at wild type CB2 receptor (unknown origin) stably expressed in HEK293T cells assessed as inhibition of forskolin-stimulated cAMP levels preincubated for 15 mins followed by forskolin addition incubated for 15 mins by HTRF assay
Cannabinoid receptor 2 [9] = target: T1, Cannabinoid receptor 2; experiment: Negative allosteric modulation of JWH-133-induced agonist activity at wild type CB2 receptor (unknown origin) stably expressed in HEK293T cells assessed as decrease in cAMP levels preincubated for 15 mins followed by forskolin addition incubated for 15 mins by HTRF assay relative to JWH-133; conditions: time 30.0 min
Cannabinoid receptor 2 [10] = target: T1, Cannabinoid receptor 2; experiment: Positive allosteric modulation of JWH-133-induced agonist activity at wild type CB2 receptor (unknown origin) stably expressed in HEK293T cells assessed as decrease in cAMP levels preincubated for 15 mins followed by forskolin addition incubated for 15 mins by HTRF assay relative to JWH-133; conditions: filed as positive allosteric modulator, time 30.0 min

T1 sequence (P34972 whole entry): as the sequence (P34972 whole entry V113M) above, with M113V counted along it

Structure (SMILES)	Emax (Cannabinoid receptor 2 [3]) [%]	EC50 (Cannabinoid receptor 2 [8]) [nM]	%max (Cannabinoid receptor 2 [10]) [%]	other results
C=C(C)[C@@H]1CCC(C)=C[C@H]1c1c(O)cc(CCCCC)cc1O	67.8			Emax (Cannabinoid receptor 2 [1]): 49.1%; Emax [2]: 5.3%; Emax (Cannabinoid receptor 2 [4]): 74%; Emax [5]: 89.1%; Emax [6]: 186%; Emax (Cannabinoid receptor 2 [7]): 156%
C=C(C)[C@@H]1CCC(C)=C[C@H]1c1c(O)cc(CCCC)cc1O	64.1	200		%max (Cannabinoid receptor 2 [9]; filed as negative allosteric modulator): 82%
C=C(C)[C@@H]1CCC(C)=C[C@H]1c1c(O)cc(CCC)cc1O [CANNABIDIVARIN]	48	12.6	118	
C=C(C)[C@@H]1CCC(C)=C[C@H]1c1c(O)cc(CCCCCC)cc1O	83.5	126		%max (Cannabinoid receptor 2 [9]): 38%
C=C(C)[C@@H]1CCC(C)=C[C@H]1c1c(O)cc(CC)cc1O	45.3	31.6	124	
